Activity calls are given as the source filed them. No cut-off for these calls is given here.

The subject of assay [1] is LNCaP. Kind of assay: Cell cycle arrest in human LNCaP cells assessed as accumulation of cells at M phase at 20 to 50 uM after 24 hrs by DAPI staining-based fluorescence assay. The note with it: dose microM 20-50, time 24.0 hrs. The class given is functional.
For assay [2], the system named is LNCaP. Kind of assay: Cell cycle arrest in human LNCaP cells assessed as accumulation of cells at G2 phase at 20 to 50 uM after 24 hrs by DAPI staining-based fluorescence assay. In kind it is functional. The note with it: dose microM 20-50, time 24.0 hrs.
In assay [3] the test system is LNCaP. Kind of assay: Reduction in mitochondrial membrane potential in human LNCaP cells assessed as reduction in tubular structure at 20 to 50 uM after 24 hrs by Hoechst 33342/MTG staining-based by fluorescence assay. Particulars: dose microM 20-50, time 24.0 hrs. The class given is functional, cell-based.
The subject of assay [4] is LNCaP. Kind of assay: Cell cycle arrest in human LNCaP cells assessed as cell death at 20 to 50 uM after 24 hrs in presence of VINB by DAPI staining-based fluorescence assay. In kind it is functional. Particulars: dose microM 20-50, time 24.0 hrs.
Assay [5] deals with LNCaP. Kind of assay: Cell cycle arrest in human LNCaP cells assessed as cell death at 20 to 50 uM after 24 hrs in presence of 6AA by DAPI staining-based fluorescence assay. The note with it: dose microM 20-50, time 24.0 hrs. In kind it is functional.
Assay [6] has as its system LNCaP. As to the kind of experiment: Reduction in mitochondrial membrane potential in human LNCaP cells assessed as mitochondrial morphological change at 50 uM after 24 hrs by Hoechst 33342/MTG staining-based by fluorescence assay. In kind it is functional, cell-based.

Turning to `COC1=C(Br)C[C@@]2(OC=C1Br)ON=C(C(=O)NCCCOc1c(Br)cc(CCN(C)C(=O)NC3CCCC3)cc1Br)[C@H]2O`, the outcome in assay [1] and in assay [2] was Active.

Turning to `COC1=C(Br)C[C@@]2(OC=C1Br)ON=C(C(=O)NCCCOc1c(Br)cc(CCN(C)C(=O)NCc3ccc(OC)cc3)cc1Br)[C@H]2O`, the outcome in assay [1] and in assay [2] was inactive.

For the molecule `CCCCNC(=O)N(C)CCc1cc(Br)c(OCCCNC(=O)C2=NO[C@]3(CC(Br)=C(OC)C(Br)=CO3)[C@@H]2O)c(Br)c1`, the outcome in assay [3], in assay [4], in assay [5], in assay [1] and in assay [2] was Active.

For the molecule `COC1=C(Br)C[C@@]2(OC=C1Br)ON=C(C(=O)NCCCOc1c(Br)cc(CCN(C)C(=O)NCCc3ccc(F)cc3)cc1Br)[C@H]2O`, the outcome in assay [1] and in assay [2] was Active.

With `COC1=C(Br)C[C@@]2(OC=C1Br)ON=C(C(=O)NCCCOc1c(Br)cc(CCN(C)C(=O)Nc3cccc(OC)c3OC)cc1Br)[C@H]2O`, the outcome in assay [1] and in assay [2] was inactive.

Take `C=CCNC(=O)N(C)CCc1cc(Br)c(OCCCNC(=O)C2=NO[C@]3(CC(Br)=C(OC)C(Br)=CO3)[C@@H]2O)c(Br)c1`: the result in assay [3], in assay [1] and in assay [2] was Active.

In the case of `COC1=C(Br)C[C@@]2(OC=C1Br)ON=C(C(=O)NCCCOc1c(Br)cc(CCN(C)C(=O)Nc3ccccc3)cc1Br)[C@H]2OC(=O)c1ccccc1`, the outcome in assay [1] and in assay [2] was inactive.

For `COC1=C(Br)C[C@@]2(OC=C1Br)ON=C(C(=O)NCCCOc1c(Br)cc(CCN(C)C(=O)Nc3ccc(C(C)=O)cc3)cc1Br)[C@H]2O`, the outcome in assay [1] and in assay [2] was Active.

Take `COC1=C(Br)C[C@@]2(OC=C1Br)ON=C(C(=O)NCCCOc1c(Br)cc(CCN(C)C(=O)C(C)(C)C)cc1Br)[C@H]2O`: the result in assay [3], in assay [4], in assay [5], in assay [1] and in assay [2] was Active.

On to `COC1=C(Br)C[C@@]2(OC=C1Br)ON=C(C(=O)NCCCOc1c(Br)cc(CCN(C)C(=O)C(C)(C)C)cc1Br)[C@H]2OC(=O)C(C)(C)C`, for which the result in assay [3], in assay [1] and in assay [2] was Active.

On to `CNCCc1cc(Br)c(OCCCNC(=O)C2=NO[C@]3(CC(Br)=C(OC)C(Br)=CO3)[C@@H]2O)c(Br)c1`, for which the outcome in assay [3], in assay [6], in assay [1] and in assay [2] was Active.

The record behind these values is ChEMBL document CHEMBL4665706, “Synthesis of a Unique Psammaplysin F Library and Functional Evaluation in Prostate Cancer Cells by Multiparametric Quantitative Single Cell Imaging” (J Nat Prod, 2020).
